According to patent publication US20130040882A1, “USE OF FIBROBLAST GROWTH FACTOR FRAGMENTS” (NOVARTIS AG, priority 2003, published 2013):
Read-outs that look alike come from different tables or passages of the source.

Test system: transcript levels in tissues (GH/IGF and glucagon/insulin axes, SSTR signalling)
Type: in vivo, cynomolgus monkeys
[1] = RNA expression fold change, brown fat
[2] = RNA expression fold change, pancreas
[3] = RNA expression fold change, pituitary

cyclo[4-(NH2—C2H4—NH—CO—O)Pro-Phg-DTrp-Lys-Tyr(4-Bzl)-Phe] [SOM230]
Gene expression (AvgDiff): IGF-1 (BROWN FAT): 389
Gene expression (AvgDiff): IGFBP 4 (BROWN FAT): 763
Gene expression (AvgDiff): IRS 2 (BROWN FAT): 146
Gene expression (AvgDiff): SSTR3 (BROWN FAT): 194
Gene expression (AvgDiff): IGF-1 (PANCREAS): 89
Gene expression (AvgDiff): SSTR2 (PANCREAS): 156
Gene expression (AvgDiff): GR (PITUITARY): 109
Gene expression (AvgDiff): IGF-2 (PITUITARY): 70
Gene expression (AvgDiff): IGFBP, acid labile subunit (PITUITARY): 83
Gene expression (AvgDiff): SSTR3 (PITUITARY): 57
Actin related protein 2/3 complex, subunit 1A (41 kD) ↓ [1]: (41 kD) ↓ x2.5
Adrenergic, β-3-, receptor ↑ [1]: receptor ↑ x2.5
Apotosis-associated tyrosine kinase ↑ [1]: tyrosine kinase ↑ x3.5
CD2 antigen (cytoplasmic tail)-binding protein 2 ↑ [1]: protein 2 ↑ x2.5
CSF 1 (macrophage) ↓ [1]: ↓ x2
CSF 3 receptor (granulocyte) ↑ [1]: (granulocyte) ↑ x3
Ca++ channel, voltage dependent, α 1H subunit ↑ [1]: ↑ x3
Cadherin 5, VE-cadherin (vascular epithelium) ↑ [1]: (vascular epithelium) ↑ x3
Cadherin 13, H-cadherin (heart) ↓ [1]: (heart) ↓ x2
Cadherin F1B1 ↓ [1]: Cadherin F1B1 ↓ x4
Calcium/calmodulin-dependent protein kinase I ↓ [1]: kinase I ↓ x3.5
Capping protein (actin filament), gelsolin-like ↓ [1]: ↓ x2.5
Coagulation factor XIIIAI subunit precursor ↓ [1]: ↓ x5
Cyclin T2 ↑ [1]: Cyclin T2 ↑ x2.5
Dopamine receptor D3 ↑ [1]: x2.5
Dual specificity PP MKP-5 ↑ [1]: MKP-5 ↑ x2.5
EGF receptor pathway substrate 15 ↓ [1]: substrate 15 ↓ x2
Endothelial cell GF 1 (platelet derived) ↓ [1]: (platelet derived) ↓ x2
Endothelial differentiation, sphingolipid G-protein-coupled receptor, 5 ↑ [1]: coupled receptor, 5 ↑ x2.5
FSHR ↑ [1]: FSHR ↑ x2.5
Fms-related tyrosine kinase 1 (VEGF/vascular permeability factor receptor) ↓ [1]: receptor) ↓ x4.5
Follistatin-like 3 glycoprotein ↑ [1]: glycoprotein ↑ x3
G1 to S phase transition ↓ [1]: ↓ x1.5
G protein-activated inwardly rectifying K+ channel ↑ [1]: channel ↑ x3.5
G protein-coupled receptor 1 ↓ [1]: receptor 1 ↓ x2.5
G α inhibiting activity polypeptide 3 interacting protein ↓ [1]: protein ↓ x5
GLUR, metabotropic 1 ↑ [1]: ↑ x2
Guanine nucleotide binding protein (G protein), β polypeptide 3 ↑ [1]: ↑ x2.5
IFN induced transmembrane protein 1 ↑ [1]: ↑ x2.5
IFN γ-inducible protein 30 (IP30) ↓ [1]: 30 (IP30) ↓ x3.5
IGF-1 ↓ [1]: IGF-1 ↓ x1.5
IGF-binding protein 4 ↓ [1]: ↓ x2
IL 3 (CSF, multiple) ↑ [1]: ↑ x2
IL 5R, α ↑ [1]: IL 5R, α↑ x2.5
IL 7R precursor ↑ [1]: IL 7R precursor ↑ x2
IRS (insulin receptor substrate) 2 ↑ [1]: substrate) 2 ↑ x2.5
Neuroblastoma apoptosis-related RNA bindingprotein ↓ [1]: bindingprotein ↓ x3
Neuroblastoma ↓ [1]: Neuroblastoma ↓ x2.5
Oxytocin, prepro-(neurophysin I) ↑ [1]: (neurophysin I) ↑ x2.5
PCNA ↓ [1]: PCNA ↓ x2.5
PI glycan, class F ↓ [1]: PI glycan, class F ↓ x2
PI glycan, class L ↑ [1]: PI glycan, class L ↑ x3.5
PI-3-kinase. regulatory subunit, polypeptide 2 (p85 β) ↓ [1]: (p85 β) ↓ x3.5
PLC β4 ↑ [1]: PLC β4 ↑ x2
PP 2, regulatory subunit B (B56), γ isoform ↓ [1]: B (B56), γ isoform ↓ x1.5
PP 5, catalytic subunit ↑ [1]: ↑ x2.5
Pentaxin-related gene, rapidly induced by IL-1 ↓ [1]: ↓ x7.5
T3 receptor ↑ [1]: T3 receptor ↑ x2
TGF β3 ↑ [1]: TGF β3 ↑ x2.5
TGF β-activated kinase-binding protein 1 ↑ [1]: binding protein 1 ↑ x2.5
THR interactor 10 ↓ [1]: THR interactor 10 ↓ x3
THR interactor 12 ↓ [1]: ↓ x1.5
TNF type 1 receptor associated protein ↓ [1]: associated protein ↓ x2
VGF nerve growth factor inducible ↑ [1]: factor inducible ↑ x2
BCL2/adenovirus E1B 19 kD-intracting protein 1, isoform BNIP1-a ↓ [2]: BNIP1-a ↓ x1.5
CRHR 1 ↓ [2]: CRHR 1 ↓ x2
Ca++ channel, voltage dependent, α 1F subunit ↓ [2]: ↓ x4.5
Cdki 1C ↑ [2]: Cdki 1C ↑ x2
Chymotrypsin-like ↑ [2]: ↑ x3.5
Cyclin D1 ↑ [2]: Cyclin D1 ↑ x2
Cyclin T2 ↓ [2]: Cyclin T2 ↓ x2
G-CSF protein ↓ [2]: G-CSF protein ↓ x2
GLUR precursor, flip isoform ↑ [2]: flip isoform ↑ x3
Gastrin-releasing peptide receptor ↓ [2]: peptide receptor ↓ x5
IFN regulatory factor 3 ↑ [2]: factor 3 ↑ x5
IGF-1 ↑ [2]: IGF-1 ↑ x4.5
IL 1 receptor antagonist ↓ [2]: antagonist↓ x2
IP-1-phosphatase ↑ [2]: ↑ x2.5
Integrin α2b precursor ↑ [2]: precursor ↑ x1.5
K+ voltage-gated channel, KQT-like subfamily, member3 ↓ [2]: ↓ x2.5
Na+ channel, voltage-gated, type I, β polypeptide ↑ [2]: β polypeptide ↑ x2
Neuroblastoma apoptosis-related RNA bindingprotein ↓ [2]: ↓ x3
PDGFR α ↑ [2]: PDGFR α ↑ x2.5
PDGFR, α polypeptide ↑ [2]: α polypeptide ↑ x1.5
PI-4-kinase, catalytic, α polypeptide ↑ [2]: α polypeptide ↑ x1.5
PL A2, group IVC (cytosolic, calcium-independent) ↑ [2]: independent) ↑ x1.5
Phosphotyrosine independent ligand p62B for the Lck SH2 domain B-cell isoform ↓ [2]: isoform ↓ x2
Prostacyclin synthase ↑ [2]: ↑ x2
SSTR2 ↓ [2]: SSTR2 ↓ x1.5
Smad 3 ↓ [2]: Smad 3 ↓ x1.5
THR binding protein ↓ [2]: ↓ x2
THR interactor 10 ↑ [2]: ↑ x2.5
Thrombospondin 2 ↑ [2]: ↑ x3.5
1-PI-4-phosphate 5-kinase isoform C ↓ [3]: kinase isoform C ↓ x1.5
ANP (atrial natriuretic peptide precursor B) ↑ [3]: peptide precursor B) ↑ x2
ATP(GTP)-binding protein ↑ [3]: protein ↑ x1.5
ATPase, Ca++ transporting cardiac muscle, slow twitch 2 ↑ [3]: ↑ x1.5
ATPase, H+/K+ exchanging, α polypeptide ↓ [3]: ↓ x5
ATPase, Na+/K+ transporting, α2(+) polypeptide ↑ [3]: polypeptide ↑ x2.5
ATPase, Na+/K+ transporting, β3 polypeptide ↑ [3]: polypeptide ↑ x2.5
Adrenomedullin ↑ [3]: Adrenomedullin ↑ x2.5
Arg PTK-binding protein ↓ [3]: protein ↓ x2.5
BCL2-antagonist of cell death ↑ [3]: death ↑ x2
BCL2-associated athanogene ↑ [3]: athanogene ↑ x2
BCL2/adenovirus E1B 19 kD-interacting protein 3 ↑ [3]: ↑ x1.5
Bax γ ↑ [3]: Bax γ ↑ x1.5
Brain cannabinoid receptor 1 ↑ [3]: receptor 1 ↑ x2
Butyrate response factor 2 (EGF-response factor 2) ↑ [3]: ↑ x3
CC chemokines STCP-1 ↑ [3]: ↑ x1.5
CD36 antigen ↓ [3]: CD36 antigen ↓ x2
Calcium/calmodulin-dependent protein kinase I ↑ [3]: kinase I ↑ x2.5
Catenin (cadherin-associated protein), α1 (102 kD) ↓ [3]: α1 (102 kD) ↓ x1.5
Cdki2C (p18, inhibits CDK4) ↑ [3]: CDK4) ↑ x2
Cdki2D (p19, inhibits CDK4) ↑ [3]: CDK4) ↑ x1.5
Cell division cycle 25B ↑ [3]: ↑ x5
Cholecystokinin receptor ↓ [3]: receptor ↓ x4.5
Cholinergic receptor, muscarinic 3 ↓ [3]: muscarinic 3 ↓ x3
Cholinergic receptor, nicotinic, β polypeptide 4 ↓ [3]: β polypeptide 4 ↓ x2
